In US11530222B2, “Substituted pyrrolopyrimidine and pyrazolopyrimidine as Bruton's tyrosine kinase (BTK) degraders” (ACCUTAR BIOTECHNOLOGY INC., priority 2021, dated 2022):

Target: T1, BTK (Homo sapiens, UniProt Q06187)
T1 construct: BTK Degradative Activity of Exemplary Compounds of the Present Disclosure in a RAMOS Cell Line; host or cells: RAMOS
Assay: BTK degradative activity in a RAMOS cell line (Western blot)
Format: cell-based
Conditions: 6 hours after administration, read-out: RAMOS BTK Degradation DC50
Method: RAMOS (ATCC) cells were plated in 24-well plates at 8×10^5 cells/well in the RPMI growth medium containing 10% heat-inactivated FBS and 1× Penicillin Streptomycin, and then incubated at 37° C. overnight. The following day, the test compound was administered to the cells by using 1000× compound stock solution prepared in DMSO at various concentrations. After administration of the compound, the cells were then incubated at 37° C. for 6 hours.
Upon completion, the cells were collected by centrifugation and lysed in Laemmli sample buffer (1×; VWR International). Proteins in cell lysate were separated by SDS-PAGE and transferred to Odyssey nitrocellulose membranes (Licor) with Iblot® dry blotting transfer system (ThermoFisher). Nonspecific binding was blocked by incubating membranes with Intercept Blocking Buffer (Licor) for 1 hour at room temperature with gentle shaking. The membranes were then incubated overnight at 4° C. with primary antibodies anti-BTK (Cell signaling, cat. #8547) and anti-GAPDH (Cell signaling, cat. #5179) diluted in Intercept Blocking Buffer containing 0.1% Tween 20. After washing 3 times with TBS-T, the membranes were incubated with IRDye® 800CW goat anti-mouse IgG (1:20,000, Licor) or IRDye® 800CW goat anti-rabbit IgG (1:20,000, Licor) for 1 hour. After TBS-T washes, membranes were rinsed in TBS and scanned on Odyssey® CLx Imaging System (Licor). The bands were quantified using Image Studio™ Software (Licor).
Table 3 summarizes the BTK degradative activity of exemplary compounds of the present disclosure in a RAMOS cell line 6 hours after administration. The DC50 values (i.e., the concentration of test compound at which 50% of the target protein is degraded) were calculated. A designation of “A” corresponds to a DC50 value less than 10 nM. A designation of “B” corresponds to a DC50 value greater than or equal to 10 nM and less than 100 nM. A designation of “C” corresponds to a DC50 value greater than or equal to 100 nM.

T1 sequence (Q06187 whole entry): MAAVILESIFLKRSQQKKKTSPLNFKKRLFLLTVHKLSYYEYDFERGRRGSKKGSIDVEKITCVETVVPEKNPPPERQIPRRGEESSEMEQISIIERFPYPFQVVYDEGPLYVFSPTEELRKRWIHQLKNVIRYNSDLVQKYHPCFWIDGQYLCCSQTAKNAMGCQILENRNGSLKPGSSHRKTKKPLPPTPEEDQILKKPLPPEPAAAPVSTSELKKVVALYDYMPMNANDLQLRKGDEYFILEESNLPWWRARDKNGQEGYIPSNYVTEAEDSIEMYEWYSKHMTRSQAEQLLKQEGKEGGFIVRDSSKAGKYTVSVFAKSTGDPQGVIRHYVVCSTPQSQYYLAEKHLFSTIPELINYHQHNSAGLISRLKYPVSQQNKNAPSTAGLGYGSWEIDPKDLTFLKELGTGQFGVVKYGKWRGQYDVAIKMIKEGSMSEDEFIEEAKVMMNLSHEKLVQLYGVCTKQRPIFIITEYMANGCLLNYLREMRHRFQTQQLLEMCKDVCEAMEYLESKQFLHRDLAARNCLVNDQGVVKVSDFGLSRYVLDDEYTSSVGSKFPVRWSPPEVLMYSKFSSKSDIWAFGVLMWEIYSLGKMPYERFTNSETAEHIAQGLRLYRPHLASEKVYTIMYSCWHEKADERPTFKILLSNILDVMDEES

Row | SMILES | DC50
1 | O=C1CCC(N2C(=O)c3ccc(N4CCN(CCCCC(=O)N5CCC(Nc6ncnc7[nH]cc(C(=O)c8ccc(Oc9ccccc9)cc8Cl)c67)CC5)CC4)cc3C2=O)C(=O)N1 (stereo not drawn) [Compound 31, 5-(4-(5-(4-((5-(2-chloro-4-phenoxybenzoyl)-7H-pyrrolo[2,3-d]pyrimidin-4-yl)amino)piperidin-1-yl)-5-oxopentyl)piperazin-1-yl)-2-(2,6-dioxopiperidin-3-yl)isoindoline-1,3-dione] | 10 to 100 nM
2 | O=C1CC[C@H](N2Cc3cc(N4CCN(CC5CCN(C(=O)N6CCC[C@@H](Nc7ncnc8[nH]cc(C(=O)c9ccc(Oc%10ccccc%10)cc9Cl)c78)C6)CC5)CC4)ccc3C2=O)C(=O)N1 [Compound 32, (S)-3-(5-(4-((1-((R)-3-((5-(2-chloro-4-phenoxybenzoyl)-7H-pyrrolo[2,3-d]pyrimidin-4-yl)amino)piperidine-1-carbonyl)piperidin-4-yl)methyl)piperazin-1-yl)-1-oxoisoindolin-2-yl)piperidine-2,6-dione] | 10 to 100 nM
3 | O=C1CC[C@H](N2C(=O)c3ccc(N4CCN(CC5CCN(C(=O)N6CCC[C@@H](Nc7ncnc8[nH]cc(C(=O)c9ccc(Oc%10ccccc%10)cc9Cl)c78)C6)CC5)CC4)cc3C2=O)C(=O)N1 [Compound 33, 5-(4-((1-((R)-3-((5-(2-chloro-4-phenoxybenzoyl)-7H-pyrrolo[2,3-d]pyrimidin-4-yl)amino)piperidine-1-carbonyl)piperidin-4-yl)methyl)piperazin-1-yl)-2-((S)-2,6-dioxopiperidin-3-yl)isoindoline-1,3-dione] | 10 to 100 nM
4 | O=C1CCC(N2C(=O)c3ccc(N4CCN(CCCCCN5CCC(Nc6ncnc7[nH]cc(C(=O)c8ccc(Oc9ccccc9)cc8Cl)c67)CC5)CC4)cc3C2=O)C(=O)N1 (stereo not drawn) [Compound 34, 5-(4-(5-(4-((5-(2-chloro-4-phenoxybenzoyl)-7H-pyrrolo[2,3-d]pyrimidin-4-yl)amino)piperidin-1-yl)pentyl)piperazin-1-yl)-2-(2,6-dioxopiperidin-3-yl)isoindoline-1,3-dione] | < 10 nM
5 | O=C1CCC(N2C(=O)c3cccc(C#CCCCCCCC(=O)N4CCC(Nc5ncnc6[nH]cc(C(=O)c7ccc(Oc8ccccc8)cc7Cl)c56)CC4)c3C2=O)C(=O)N1 (stereo not drawn) [Compound 35, 4-(9-(4-((5-(2-chloro-4-phenoxybenzoyl)-7H-pyrrolo[2,3-d]pyrimidin-4-yl)amino)piperidin-1-yl)-9-oxonon-1-yn-1-yl)-2-(2,6-dioxopiperidin-3-yl)isoindoline-1,3-dione] | ≥ 100 nM
6 | O=C1CCC(N2C(=O)c3cccc(C#CCCCCC(=O)N4CCC(Nc5ncnc6[nH]cc(C(=O)c7ccc(Oc8ccccc8)cc7Cl)c56)CC4)c3C2=O)C(=O)N1 (stereo not drawn) [Compound 36, 4-(7-(4-((5-(2-chloro-4-phenoxybenzoyl)-7H-pyrrolo[2,3-d]pyrimidin-4-yl)amino)piperidin-1-yl)-7-oxohept-1-yn-1-yl)-2-(2,6-dioxopiperidin-3-yl)isoindoline-1,3-dione] | ≥ 100 nM
7 | O=C1CCC(N2C(=O)c3ccc(N4CCN(C5CC(CC(=O)N6CCC(Nc7ncnc8[nH]cc(C(=O)c9ccc(Oc%10ccccc%10)cc9Cl)c78)CC6)C5)CC4)cc3C2=O)C(=O)N1 (stereo not drawn) [Compound 37, 5-(4-(3-(2-(4-((5-(2-chloro-4-phenoxybenzoyl)-7H-pyrrolo[2,3-d]pyrimidin-4-yl)amino)piperidin-1-yl)-2-oxoethyl)cyclobutyl)piperazin-1-yl)-2-(2,6-dioxopiperidin-3-yl)isoindoline-1,3-dione] | 10 to 100 nM
8 | O=C1CCC(N2C(=O)c3cccc(C#CCCCCCC(=O)N4CCC(Nc5ncnc6[nH]cc(C(=O)c7ccc(Oc8ccccc8)cc7Cl)c56)CC4)c3C2=O)C(=O)N1 (stereo not drawn) [Compound 38, 4-(8-(4-((5-(2-chloro-4-phenoxybenzoyl)-7H-pyrrolo[2,3-d]pyrimidin-4-yl)amino)piperidin-1-yl)-8-oxooct-1-yn-1-yl)-2-(2,6-dioxopiperidin-3-yl)isoindoline-1,3-dione] | ≥ 100 nM
9 | O=C1CCC(N2Cc3c(C#CCCCCCCC(=O)N4CCC(Nc5ncnc6[nH]cc(C(=O)c7ccc(Oc8ccccc8)cc7Cl)c56)CC4)cccc3C2=O)C(=O)N1 (stereo not drawn) [Compound 39, 3-(4-(9-(4-((5-(2-chloro-4-phenoxybenzoyl)-7H-pyrrolo[2,3-d]pyrimidin-4-yl)amino)piperidin-1-yl)-9-oxonon-1-yn-1-yl)-1-oxoisoindolin-2-yl)piperidine-2,6-dione] | ≥ 100 nM
10 | O=C1CCC(N2Cc3c(C#CCCCCCC(=O)N4CCC(Nc5ncnc6[nH]cc(C(=O)c7ccc(Oc8ccccc8)cc7Cl)c56)CC4)cccc3C2=O)C(=O)N1 (stereo not drawn) [Compound 40, 3-(4-(8-(4-((5-(2-chloro-4-phenoxybenzoyl)-7H-pyrrolo[2,3-d]pyrimidin-4-yl)amino)piperidin-1-yl)-8-oxooct-1-yn-1-yl)-1-oxoisoindolin-2-yl)piperidine-2,6-dione] | ≥ 100 nM
11 | O=C1CCC(N2Cc3c(C#CCCCCC(=O)N4CCC(Nc5ncnc6[nH]cc(C(=O)c7ccc(Oc8ccccc8)cc7Cl)c56)CC4)cccc3C2=O)C(=O)N1 (stereo not drawn) [Compound 41, 3-(4-(7-(4-((5-(2-chloro-4-phenoxybenzoyl)-7H-pyrrolo[2,3-d]pyrimidin-4-yl)amino)piperidin-1-yl)-7-oxohept-1-yn-1-yl)-1-oxoisoindolin-2-yl)piperidine-2,6-dione] | ≥ 100 nM
12 | O=C1CC[C@H](N2Cc3cc(N4CCN(C5CC(CC(=O)N6CCC(Nc7ncnc8[nH]cc(C(=O)c9ccc(Oc%10ccccc%10)cc9Cl)c78)CC6)C5)CC4)ccc3C2=O)C(=O)N1 (stereo partly drawn) [Compound 42, (S)-3-(5-(4-(3-(2-(4-((5-(2-chloro-4-phenoxybenzoyl)-7H-pyrrolo[2,3-d]pyrimidin-4-yl)amino)piperidin-1-yl)-2-oxoethyl)cyclobutyl)piperazin-1-yl)-1-oxoisoindolin-2-yl)piperidine-2,6-dione] | < 10 nM
13 | O=C1CCC(N2C(=O)c3ccc(N4CCN(C5CC(CC(=O)N6CCC[C@@H](Nc7ncnc8[nH]cc(C(=O)c9ccc(Oc%10ccccc%10)cc9Cl)c78)C6)C5)CC4)cc3C2=O)C(=O)N1 (stereo partly drawn) [Compound 43, 5-(4-(3-(2-((R)-3-((5-(2-chloro-4-phenoxybenzoyl)-7H-pyrrolo[2,3-d]pyrimidin-4-yl)amino)piperidin-1-yl)-2-oxoethyl)cyclobutyl)piperazin-1-yl)-2-(2,6-dioxopiperidin-3-yl)isoindoline-1,3-dione] | < 10 nM
14 | O=C1CCC(N2C(=O)c3ccc(N4CCN(CCC5CCN(c6ccc(Nc7ncnc8[nH]cc(C(=O)c9ccc(Oc%10ccccc%10)cc9Cl)c78)cc6F)CC5)CC4)cc3C2=O)C(=O)N1 (stereo not drawn) [Compound 44, 5-(4-(2-(1-(4-((5-(2-chloro-4-phenoxybenzoyl)-7H-pyrrolo[2,3-d]pyrimidin-4-yl)amino)-2-fluorophenyl)piperidin-4-yl)ethyl)piperazin-1-yl)-2-(2,6-dioxopiperidin-3-yl)isoindoline-1,3-dione] | ≥ 100 nM
15 | O=C1CC[C@H](N2Cc3cc(N4CCN(CCC5CCN(c6ccc(Nc7ncnc8[nH]cc(C(=O)c9ccc(Oc%10ccccc%10)cc9Cl)c78)cc6F)CC5)CC4)ccc3C2=O)C(=O)N1 [Compound 45, (S)-3-(5-(4-(2-(1-(4-((5-(2-chloro-4-phenoxybenzoyl)-7H-pyrrolo[2,3-d]pyrimidin-4-yl)amino)-2-fluorophenyl)piperidin-4-yl)ethyl)piperazin-1-yl)-1-oxoisoindolin-2-yl)piperidine-2,6-dione] | ≥ 100 nM
16 | O=C1CC[C@H](N2Cc3cc(N4CCN(CC5CCN(c6ccc(Nc7ncnc8[nH]cc(C(=O)c9ccc(Oc%10ccccc%10)cc9Cl)c78)cc6F)CC5)CC4)ccc3C2=O)C(=O)N1 [Compound 46, (S)-3-(5-(4-((1-(4-((5-(2-chloro-4-phenoxybenzoyl)-7H-pyrrolo[2,3-d]pyrimidin-4-yl)amino)-2-fluorophenyl)piperidin-4-yl)methyl)piperazin-1-yl)-1-oxoisoindolin-2-yl)piperidine-2,6-dione] | ≥ 100 nM
17 | O=C1CCC(N2C(=O)c3ccc(N4CCN(CC5CCN(c6ccc(Nc7ncnc8[nH]cc(C(=O)c9ccc(Oc%10ccccc%10)cc9Cl)c78)cc6F)CC5)CC4)cc3C2=O)C(=O)N1 (stereo not drawn) [Compound 47, 5-(4-((1-(4-((5-(2-chloro-4-phenoxybenzoyl)-7H-pyrrolo[2,3-d]pyrimidin-4-yl)amino)-2-fluorophenyl)piperidin-4-yl)methyl)piperazin-1-yl)-2-(2,6-dioxopiperidin-3-yl)isoindoline-1,3-dione] | ≥ 100 nM
18 | O=C1CCC(N2C(=O)c3ccc(N4CCC(N5CC(CC(=O)N6CCC(Nc7ncnc8[nH]cc(C(=O)c9ccc(Oc%10ccccc%10)cc9Cl)c78)CC6)C5)CC4)cc3C2=O)C(=O)N1 (stereo not drawn) [Compound 48, 5-(4-(3-(2-(4-((5-(2-chloro-4-phenoxybenzoyl)-7H-pyrrolo[2,3-d]pyrimidin-4-yl)amino)piperidin-1-yl)-2-oxoethyl)azetidin-1-yl)piperidin-1-yl)-2-(2,6-dioxopiperidin-3-yl)isoindoline-1,3-dione] | < 10 nM
